Assay results taken from PubChem BioAssay AID330 (DTP/NCI, 2004).
Values joined by “and” are separate entries in the source; they are usually repeats but may differ in a detail not shown here. Identical values can stand only once. Toxic doses and inconclusive results are not listed. Rule for the calls: active = survival T/C of 150% or more; inactive = T/C below 125% in these data.

System: P388 leukemia ip, CD2F1 mice, survival T/C
Test: NCI In Vivo Anticancer Drug Screen. Data for tumor model P388 Leukemia (intraperitoneal) in CD2F1 (CDF1) mice
Conditions: endpoint: median survival time, higher = longer survival
Method in brief: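 Mice carrying the transplanted tumor received test compound or vehicle. Survival was recorded in each group, and the value is the treated-group measurement divided by that of the vehicle-treated control group.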

[1] = dose: 60.0 mg/kg/injection, schedule: Q01DX005 (ip), vehicle: Klucel (hydroxypropylcellulose) (HPC)
[2] = dose: 120.0 mg/kg/injection, schedule: Q01DX005 (ip), vehicle: Klucel (hydroxypropylcellulose) (HPC)
[3] = dose: 240.0 mg/kg/injection, schedule: Q01DX005 (ip), vehicle: Klucel (hydroxypropylcellulose) (HPC)
[4] = dose: 50.0 mg/kg/injection, schedule: Q01DX009 (ip), vehicle: saline with Tween-80
[5] = dose: 100.0 mg/kg/injection, schedule: Q01DX009 (ip), vehicle: saline with Tween-80
[6] = dose: 200.0 mg/kg/injection, schedule: Q01DX009 (ip), vehicle: saline with Tween-80
[7] = dose: 25.0 mg/kg/injection, schedule: Q01DX005 (ip), vehicle: Klucel (hydroxypropylcellulose) (HPC)
[8] = dose: 50.0 mg/kg/injection, schedule: Q01DX005 (ip), vehicle: Klucel (hydroxypropylcellulose) (HPC)
[9] = dose: 100.0 mg/kg/injection, schedule: Q01DX005 (ip), vehicle: Klucel (hydroxypropylcellulose) (HPC)

Measured: T/C

CCN(CC)C(=Nc1ccc(Cl)c(Cl)c1)SC(NC=O)=C(Cl)Cl
inactive: [1] 100 % of control | [2] 104 % of control | [3] 104 % of control

COc1ccc(N=NC2C(=O)N(C(=O)c3ccncc3)N=C2C)cc1 (centres undefined)
inactive: [4] 95 % of control | [5] 95 % of control | [6] 96 % of control

COC(=O)/C=c1\sc2n(c1=O)CCCCN=2
inactive: [1] 86 % of control | [2] 93 % of control | [3] 100 % of control

Cc1ccc(OP(=O)(Oc2ccc(C)cc2)Oc2ccc(C)cc2)cc1.Cc1ccc(OP(=O)(Oc2ccc(C)cc2)Oc2ccc(C)cc2)cc1.Cc1ccc(OP(=O)(Oc2ccc(C)cc2)Oc2ccc(C)cc2)cc1.Cc1ccc(OP(=O)(Oc2ccc(C)cc2)Oc2ccc(C)cc2)cc1.[Fe+2].[O-][Cl+3]([O-])([O-])O
inactive: dose: 50.0 mg/kg/injection, schedule: Q01DX001 (ip), vehicle: Klucel (hydroxypropylcellulose) (HPC) 99 % of control | dose: 100.0 mg/kg/injection, schedule: Q01DX001 (ip), vehicle: Klucel (hydroxypropylcellulose) (HPC) 96 % of control | dose: 200.0 mg/kg/injection, schedule: Q01DX001 (ip), vehicle: Klucel (hydroxypropylcellulose) (HPC) 99 % of control

COC(=O)C(CSC1CCCCC1=O)NC(C)=O (centres undefined)
inactive: [7] 93 % of control | [8] 95 % of control | [9] 101 % of control

Cn1c2c(c3cc(Cl)ccc31)-c1ncncc1CC2
inactive: dose: 12.5 mg/kg/injection, schedule: Q01DX005 (ip), vehicle: Klucel (hydroxypropylcellulose) (HPC) 97 % of control | [7] 97 % of control | [8] 101 % of control | dose: 100.0 mg/kg/injection, schedule: Q04DX002 (ip), vehicle: Klucel (hydroxypropylcellulose) (HPC) 92 % of control

C/C=C1/CN2CCC34c5ccccc5N(C(C)=O)C3C(CO)C1CC24 (centres undefined)
inactive: dose: 11.25 mg/kg/injection, schedule: Q01DX009 (ip), vehicle: saline with Tween-80 106 % of control | dose: 22.5 mg/kg/injection, schedule: Q01DX009 (ip), vehicle: saline with Tween-80 100 % of control | dose: 45.0 mg/kg/injection, schedule: Q01DX009 (ip), vehicle: saline with Tween-80 102 % of control | dose: 90.0 mg/kg/injection, schedule: Q01DX009 (ip), vehicle: saline with Tween-80 100 % of control

O=C(C(=O)c1cccc(C(=O)C(=O)c2ccccc2)c1)c1ccccc1
inactive: dose: 60.0 mg/kg/injection, schedule: Q01DX005 (ip), vehicle: saline with Tween-80 104 % of control | dose: 120.0 mg/kg/injection, schedule: Q01DX005 (ip), vehicle: saline with Tween-80 96 % of control | dose: 240.0 mg/kg/injection, schedule: Q01DX005 (ip), vehicle: saline with Tween-80 92 % of control

CN(C)c1nc(N/N=C/c2ccc([N+](=O)[O-])cc2)nc(N(C)C)n1
inactive: dose: 100.0 mg/kg/injection, schedule: Q04DX003 (ip), vehicle: saline with Tween-80 98 % of control | dose: 200.0 mg/kg/injection, schedule: Q04DX003 (ip), vehicle: saline with Tween-80 105 % of control | dose: 400.0 mg/kg/injection, schedule: Q04DX003 (ip), vehicle: saline with Tween-80 93 % of control

CC1(C)CC(O)CC2(C)OC(=O)C=C12 (centres undefined)
inactive: dose: 2.5 mg/kg/injection, schedule: Q01DX009 (ip), vehicle: DMSO 101 % of control | dose: 5.0 mg/kg/injection, schedule: Q01DX009 (ip), vehicle: DMSO 103 % of control | dose: 10.0 mg/kg/injection, schedule: Q01DX009 (ip), vehicle: DMSO 91 % of control

CC(=O)OC1C2CC(Cl)C1C2 (centres undefined)
inactive: [4] 100 % of control | [5] 109 % of control | [6] 105 % of control

O=C(c1ccccc1)c1cnc2ccccn12
inactive: dose: 100.0 mg/kg/injection, schedule: Q04DX003 (ip), vehicle: Klucel (hydroxypropylcellulose) (HPC) 100 % of control | dose: 200.0 mg/kg/injection, schedule: Q04DX003 (ip), vehicle: Klucel (hydroxypropylcellulose) (HPC) 100 % of control

CCOC(=O)C1(C#N)C(c2ccccc2)C(OC)(OC)C1(OC)OC (centres undefined)
inactive: [1] 100 % of control | [2] 102 % of control | [3] 99 % of control

O=C1NCCc2ccc(cc2)OCCC(=O)N2CCCC12 (centres undefined)
inactive: dose: 35.0 mg/kg/injection, schedule: Q01DX005 (ip), vehicle: Klucel (hydroxypropylcellulose) (HPC) 107 % of control | dose: 70.0 mg/kg/injection, schedule: Q01DX005 (ip), vehicle: Klucel (hydroxypropylcellulose) (HPC) 104 % of control | dose: 140.0 mg/kg/injection, schedule: Q01DX005 (ip), vehicle: Klucel (hydroxypropylcellulose) (HPC) 98 % of control

CC1(C)Oc2cc3oc(C(=O)O)cc(=O)c3cc2-c2ccccc21
inactive: dose: 50.0 mg/kg/injection, schedule: Q01DX009 (ip), vehicle: saline 92 % of control | dose: 100.0 mg/kg/injection, schedule: Q01DX009 (ip), vehicle: saline 96 % of control | dose: 200.0 mg/kg/injection, schedule: Q01DX009 (ip), vehicle: saline 109 % of control

CC(C)(C)N(C(=O)OCC1c2ccccc2-c2ccccc21)C(CO)C(=O)O (centres undefined)
inactive: [8] 100 % of control | [9] 107 % of control

CCC1CCC2CCCCN2CO1 (centres undefined)
inactive: dose: 12.5 mg/kg/injection, schedule: Q01DX005 (ip), vehicle: saline 101 % of control | dose: 25.0 mg/kg/injection, schedule: Q01DX005 (ip), vehicle: saline 118 % of control | dose: 50.0 mg/kg/injection, schedule: Q01DX005 (ip), vehicle: saline 114 % of control and 123 % of control | dose: 100.0 mg/kg/injection, schedule: Q01DX005 (ip), vehicle: saline 114 % of control and 121 % of control

Nc1ccc(NC(=O)c2cc(Cl)cc(Cl)c2O)c(Cl)c1
inactive: [4] 107 % of control | [5] 114 % of control
